Measured values from US12286429B2, “5-oxo-1,2,3,5,8,8a-hexahydroindolizine-3-carboxamide derivatives useful as a factor XIa inhibitors” (Janssen Pharmaceutica NV, priority 2021, dated 2025).

What was measured:
Factor XIa = Factor XIa (Homo sapiens, UniProt P03951); test: Factor XIa inhibition assay utilizing a fluorophore-quencher pair peptide substrate (FLINT); format: biochemical; conditions: 11-point, 3-fold serial dilution, top 100 nM; 30 min preincubation; 15 μM 5Fam-KLTRAETV-K5Tamra substrate; kinetic reads over 30 min; read-out: FXIa Inhibition IC50
Chain of Factor XIa (P03951 388-625 limits assumed): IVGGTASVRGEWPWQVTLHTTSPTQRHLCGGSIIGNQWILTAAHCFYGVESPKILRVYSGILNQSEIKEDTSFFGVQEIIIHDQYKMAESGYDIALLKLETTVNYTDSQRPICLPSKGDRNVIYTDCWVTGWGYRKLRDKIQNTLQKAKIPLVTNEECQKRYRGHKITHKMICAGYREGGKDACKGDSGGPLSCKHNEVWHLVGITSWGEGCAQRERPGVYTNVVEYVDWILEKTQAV
Chain of Factor XIa (P03951 19-387 partner limits assumed): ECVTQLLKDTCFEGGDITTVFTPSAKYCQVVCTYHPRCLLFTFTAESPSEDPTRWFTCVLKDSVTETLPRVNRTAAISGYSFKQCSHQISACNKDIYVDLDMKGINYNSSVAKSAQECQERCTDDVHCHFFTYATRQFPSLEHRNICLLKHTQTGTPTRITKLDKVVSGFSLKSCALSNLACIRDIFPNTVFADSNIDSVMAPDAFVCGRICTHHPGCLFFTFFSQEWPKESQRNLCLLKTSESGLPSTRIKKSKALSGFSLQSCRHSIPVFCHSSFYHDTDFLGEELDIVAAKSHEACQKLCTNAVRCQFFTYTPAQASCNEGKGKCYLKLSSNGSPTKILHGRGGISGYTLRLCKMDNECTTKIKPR
Excerpt: Biological Example 1: Factor XIa Inhibition Assay Utilizing a Fluorophore-Quencher Pair Peptide Substrate
A fluorescence intensity (FLINT) based assay was used to monitor inhibition of Factor XIa. The peptide substrate, 5Fam-KLTRAETV-K5Tamra (purchased from New England Peptide) was chosen based on the FXI sequence. Conversion of zymogen FXI to its activated form, FXIa, occurs by proteolytic cleavage by […] at two sites, Arg146 and Arg180. The custom peptide used in this assay was based on the Arg146 cleavage site of FXI. The peptide substrate was designed with a fluorophore-quencher pair, where the fluorescence is quenched until FXIa cleaves the 8-mer peptide after the Arg residue.
The Factor XIa FLINT assay was used with the following 5Fam-KLTRAETV-K5Tamra assay buffer: 50 mM Tris, pH 7.5, 100 mM NaCl, 5 mM CaCl2, 0.1 mg/mL BSA, 0.03% CHAPS. Assay buffer was prepared by mixing all ingredients fresh. 5Fam-KLTRAETV-K5Tamra peptide substrate was first prepared at 10 mM in 100% DMSO, then diluted to 3 mM in 100% DMSO. Assay buffer was then added directly to the 3 mM stock of substrate to prepare the 30 μM 2× working concentration (15 μM final concentration). The 2× Factor XIa stock solution was prepared by diluting 6.562 μM stock in 1× assay buffer for a […].
Test compound(s) were run in an 11-point, 3-fold serial dilution with a final top compound concentration of 100 nM. Final DMSO in assay was 2%. FXIa was preincubated with compound for 30-minutes and then substrate was added to initiate the reaction. The assay was run with kinetic (KIN) reads at 5 min intervals over 30 minutes. […] More specifically, the assay was run as follows: • 100 nL of 0.01 mM test compound was dispensed into black 384-well non-binding Greiner BioOne 784900 plate for 0.1 μM final concentration, • 5 μL of 1× assay buffer was dispensed to column 24 (low control) and 5 μL 2× Factor XIa solution was dispensed to columns 1-23 (column 23 high control); • the plate was centrifuged with a “cover” plate at 500 rpm for 1 min • the plate was pre-incubated for 30 minutes at room temperature with plate covered; • 5 μL of 2×5Fam-KLTRAETV-K5Tamra peptide substrate was dispensed into the entire plate, columns 1-24; • the plate was centrifuged with a “cover” plate at 500 rpm for 1 min; • the plate was read monitoring fluorescence intensity on the BMG PHERAStar at room temperature, using fluorescence module 485 nm/520 nm.
(§1) Percent inhibition (IC50) curves were generated per compound tested, and data was analyzed using a 4-parameter logistic fit using GeneData Screener. The relative fluorescence unit (RFU) values were normalized to percent inhibition using the following equation: % inhibition=((HC−LC)−(compound−LC)/(HC−LC))*100
where LC—low control=mean signal of no Factor XIa or 100% inhibition of Factor XIa; HC—high control=mean signal of Factor XIa+5Fam-KLTRAETV-K5Tamra peptide substrate with DMSO only.
(§2) An 11-point dose response curve for the test compound(s) was generated using GENDATA to determine IC50 value based on the following equation: Y=Bottom+(Top−Bottom)/(1+10^((log IC50−X)*HillSlope))
(§3) where Y is the % inhibition in the presence of X inhibitor concentration, Top=high control=mean signal of Factor XIa+5Fam-KLTRAETV-K5Tamra peptide substrate with DMSO only; Bottom=low control—mean signal of no Factor XIa or 100% inhibition of Factor XIa; HillSlope—Hill coefficient; and IC50=concentration of compound with 50% inhibition in relation to top/high control.

human plasma kallikrein = human plasma kallikrein (Homo sapiens, UniProt P03952); test: Kallikrein inhibition assay utilizing a quenched AMC peptide substrate (FLINT); format: biochemical; conditions: 11-point, 3-fold serial dilution, top 1 μM; 30 min preincubation; 2 nM kallikrein; 50 μM Z-Gly-Pro-Arg-AMC; kinetic reads over 30 min
Chain of human plasma kallikrein (P03952 391-638 limits assumed): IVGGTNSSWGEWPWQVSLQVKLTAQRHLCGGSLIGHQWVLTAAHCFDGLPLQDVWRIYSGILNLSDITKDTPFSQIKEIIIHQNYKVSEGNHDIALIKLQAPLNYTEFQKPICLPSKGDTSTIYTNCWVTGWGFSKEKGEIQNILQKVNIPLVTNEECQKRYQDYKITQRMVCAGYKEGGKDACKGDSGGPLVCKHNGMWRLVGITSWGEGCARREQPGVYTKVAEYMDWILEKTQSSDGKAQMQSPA
Chain of human plasma kallikrein (P03952 20-390 partner limits assumed): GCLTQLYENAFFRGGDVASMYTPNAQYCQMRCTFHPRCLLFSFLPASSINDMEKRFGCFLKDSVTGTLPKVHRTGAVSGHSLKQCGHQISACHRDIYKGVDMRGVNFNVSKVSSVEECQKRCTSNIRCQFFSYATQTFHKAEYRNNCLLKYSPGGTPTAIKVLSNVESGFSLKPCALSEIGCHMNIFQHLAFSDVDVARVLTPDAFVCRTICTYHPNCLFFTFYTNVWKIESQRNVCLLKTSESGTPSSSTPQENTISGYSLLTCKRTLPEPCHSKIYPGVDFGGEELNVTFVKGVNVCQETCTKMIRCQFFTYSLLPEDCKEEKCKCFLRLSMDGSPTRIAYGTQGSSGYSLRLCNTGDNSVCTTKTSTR
Procedure: Biological Example 2: Kallikrein Inhibition Assay Utilizing a Quenched AMC Peptide Substrate
A fluorescence intensity (FLINT) based assay was used to monitor inhibition of human plasma kallikrein. The peptide substrate, Z-Gly-Pro-Arg-AMC (Purchased from Bachem; Catalog #I-1150) was chosen based on its relatively low KM for kallikrein which enables running the assay at lower substrate concentrations to control background fluorescence. The kinetic parameters for this substrate were determined by fitting titration data to the Michaelis-Menten equation yielding a KM=40 μM, kcat=0.76 s^−1, and kcat/KM=18932 M^−1s^−1.
The Kallikrein FLINT assay was used with the following Z-Gly-Pro-Arg-AMC assay buffer: 50 mM Tris, pH 7.5, 100 mM NaCl, 5 mM CaCl2, 0.1 mg/mL BSA, 0.03% CHAPS. Assay buffer was prepared by mixing all ingredients fresh. 2× Z-Gly-Pro-Arg-AMC peptide substrate was prepared by diluting 10 mM stock into 1× assay buffer for a 100 μM working concentration (50 μM final concentration). The 2× kallikrein stock solution was prepared by diluting 14.76 μM stock in 1× assay buffer for a 4 nM working stock solution (2 nM final concentration).
Test compound(s) were run in an 11-point, 3-fold serial dilution with a final top compound concentration of 1 μM. Final DMSO in assay was 2%. Plasma kallikrein was pre-incubated for 30-minute with compound and then 50 μM substrate was added to initiate the reaction. The assay was run with kinetic (KIN) reads at 5 min intervals over 30 minutes. The time course was linear using 2 nM kallikrein greater than 30 minutes. More specifically, the assay was run as follows: • 100 nL of 0.1 mM test compound was dispensed into black 384-well non-binding Greiner BioOne 784900 plate for 1 μM final concentration; • 5 μL of 1× assay buffer was dispensed to columns 24 (low control) and 5 μL 2× human kallikrein enzyme solution was dispensed to columns 1-23 (column 23 high control); • the plate was centrifuged with a “cover” plate at 500 rpm for 1 min • the plate was pre-incubated for 30 minutes at room temperature with plate covered; • 5 μL of 2× Z-Gly-Pro-Arg-AMC peptide substrate was dispensed into the entire plate, columns 1-24; • the plate was centrifuged with a “cover” plate at 500 rpm for 1 min; • the plate was read monitoring fluorescence intensity on the BMG PHERAStar at room temperature, using fluorescence module 340 nm/440 nm.
as §1
where LC—low control=mean signal of […] 100% inhibition of human kallikrein enzyme; HC—high control=mean signal of […]+Z-Gly-Pro-Arg-AMC peptide substrate with DMSO only.
as §2
as §3, with “human kallikrein enzyme+Z-Gly-Pro-Arg-AMC” for “Factor XIa+5Fam-KLTRAETV-K5Tamra”, “human kallikrein enzyme” for “Factor XIa”, “human kallikrein enzyme;” for “Factor XIa;”

Compound	IC50 (Factor XIa) [nM]	IC50 (human plasma kallikrein) [nM]
O=C(Nc1ccc2c(c1)CN(O)C2=O)[C@@H]1CCC2CC(c3c(-n4cnnn4)ccc(Cl)c3F)=CC(=O)N21 (mixture of isomers) [ID No. 30, (3S)-7-(3-Chloro-2-fluoro-6-(1H-tetrazol-1-yl)phenyl)-N-(2-hydroxy-1-oxoisoindolin-5-yl)-5-oxo-1,2,3,5,8,8a-hexahydroindolizine-3-carboxamide]	> 95	128
CN(O)C(=O)c1cc2cc(NC(=O)[C@@H]3CCC4CC(c5c(-n6cnnn6)ccc(Cl)c5F)=CC(=O)N43)ccc2[nH]1 (mixture of isomers) [ID No. 31, 5-((3S)-7-(3-Chloro-2-fluoro-6-(1H-tetrazol-1-yl)phenyl)-5-oxo-1,2,3,5,8,8a-hexahydroindolizine-3-carboxamido)-N-hydroxy-N-methyl-1H-indole-2-carboxamide]	4.8	23.7
O=C(O)/C=C/c1ccc(NC(=O)[C@@H]2CCC3CC(c4c(-n5cnnn5)ccc(Cl)c4F)=CC(=O)N32)cc1 (mixture of isomers) [ID No. 32, (E)-3-(4-((3S)-7-(3-Chloro-2-fluoro-6-(1H-tetrazol-1-yl)phenyl)-5-oxo-1,2,3,5,8,8a-hexahydroindolizine-3-carboxamido)phenyl)acrylic acid]	1.6	14.4
NC(=O)c1c(F)cc(NC(=O)[C@@H]2CCC3CC(c4c(-n5cnnn5)ccc(Cl)c4F)=CC(=O)N32)cc1F (mixture of isomers) [ID No. 33, (3S)—N-(4-Carbamoyl-3,5-difluorophenyl)-7-(3-chloro-2-fluoro-6-(1H-tetrazol-1-yl)phenyl)-5-oxo-1,2,3,5,8,8a-hexahydroindolizine-3-carboxamide]	24	204
CN(O)C(=O)c1ccc(NC(=O)[C@@H]2CCC3CC(c4c(-n5cnnn5)ccc(Cl)c4F)=CC(=O)N32)cc1 (mixture of isomers) [ID No. 34, (3S)-7-(3-Chloro-2-fluoro-6-(1H-tetrazol-1-yl)phenyl)-N-(4-(hydroxy(methyl)carbamoyl)phenyl)-5-oxo-1,2,3,5,8,8a-hexahydroindolizine-3-carboxamide]	36.3	279
O=C(O)c1c(F)cc(NC(=O)[C@@H]2CCC3CC(c4c(-n5cnnn5)ccc(Cl)c4F)=CC(=O)N32)cc1F (mixture of isomers) [ID No. 37, 4-[[(3S)-7-[3-Chloro-2-fluoro-6-(tetrazol-1-yl)phenyl]-5-oxo-2,3,8,8a-tetrahydro-1H-indolizine-3-carbonyl]amino]-2,6-difluoro-benzoic acid]	5.8	282
O=C(Nc1ccc(-c2nc(=O)o[nH]2)cc1)[C@@H]1CCC2CC(c3c(OC(F)F)ccc(Cl)c3F)=CC(=O)N21 (mixture of isomers) [ID No. 38, (3S)-7-(3-Chloro-6-(difluoromethoxy)-2-fluorophenyl)-5-oxo-N-(4-(5-oxo-2,5-dihydro-1,2,4-oxadiazol-3-yl)phenyl)-1,2,3,5,8,8a-hexahydroindolizine-3-carboxamide]	40.2	421
NC(=O)c1ccc(NC(=O)[C@@H]2CCC3CC(c4c(-n5cnnn5)ccc(Cl)c4F)=CC(=O)N32)cc1F (mixture of isomers) [ID No. 39, (3S)—N-(4-Carbamoyl-3-fluorophenyl)-7-(3-chloro-2-fluoro-6-(1H-tetrazol-1-yl)phenyl)-5-oxo-1,2,3,5,8,8a-hexahydroindolizine-3-carboxamide]	7.5	53
NC(=O)c1ccc(NC(=O)[C@@H]2CCC3CC(c4c(-n5cnnn5)ccc(Cl)c4F)=CC(=O)N32)cc1 (mixture of isomers) [ID No. 41, (3S)—N-(4-Carbamoylphenyl)-7-(3-chloro-2-fluoro-6-(1H-tetrazol-1-yl)phenyl)-5-oxo-1,2,3,5,8,8a-hexahydroindolizine-3-carboxamide]	7.4	79.7
O=C(Nc1ccc(-c2nc(=O)o[nH]2)c(F)c1)[C@@H]1CCC2CC(c3c(-n4cnnn4)ccc(Cl)c3F)=CC(=O)N21 (mixture of isomers) [ID No. 42, (3S)-7-[3-Chloro-2-fluoro-6-(tetrazol-1-yl)phenyl]-N-[3-fluoro-4-(5-oxo-2H-1,2,4-oxadiazol-3-yl)phenyl]-5-oxo-2,3,8,8a-tetrahydro-1H-indolizine-3-carboxamide]	0.3	10
CO[C@@H]1C[C@@H](C(=O)Nc2ccc3n[nH]cc3c2)N2C(=O)C=C(c3c(-n4cnnn4)ccc(Cl)c3F)CC12 (mixture of isomers) [ID No. 43, (1R,3S)-7-[3-Chloro-2-fluoro-6-(tetrazol-1-yl)phenyl]-N-(2H-indazol-5-yl)-1-methoxy-5-oxo-2,3,8,8a-tetrahydro-1H-indolizine-3-carboxamide]	11	31.3
CO[C@@H]1C[C@@H](C(=O)Nc2ccc3nn(C)cc3c2)N2C(=O)C=C(c3c(-n4cnnn4)ccc(Cl)c3F)CC12 (mixture of isomers) [ID No. 44, (1R,3S)-7-[3-Chloro-2-fluoro-6-(tetrazol-1-yl)phenyl]-1-methoxy-N-(2-methyl-2H-indazol-5-yl)-5-oxo-2,3,8,8a-tetrahydro-1H-indolizine-3-carboxamide]	10.9	31.4
CO[C@@H]1C[C@@H](C(=O)Nc2ccc3ncccc3c2)N2C(=O)C=C(c3c(-n4cnnn4)ccc(Cl)c3F)CC12 (mixture of isomers) [ID No. 45, (1R,3S)-7-[3-Chloro-2-fluoro-6-(tetrazol-1-yl)phenyl]-1-methoxy-5-oxo-N-(6-quinolyl)-2,3,8,8a-tetrahydro-1H-indolizine-3-carboxamide]	7.8	14
